In brackets after ≈: the same amount, converted by molar mass.
How the values were obtained:
[1] = tested on: P. falciparum; experiment: In-vitro evaluation of anti-malarial activity (schizont maturation inhibition); type: cell-based, Plasmodium falciparum
Experimental: Two strains of chloroquine sensitive strain and one strain of P. falciparum isolated from patients from Jagadalpur region of India and maintained in vitro. The cultures are maintained as per the standard culture procedures.
The parasites are growth in O +ve human RBCs with the addition of RPMI 1640 culture media with 10% Human serum as supplement. The cells are incubated at 37° C. at 5% CO2 atmosphere and the parasitemia is checked after 24 hrs and media changed. When parasitemia exceeded 10% parasitized cells the culture is subcultured with the addition of fresh RBC. The parasite growth is synchronized by the sorbitol lysis method and synchronized ring stage parasites are used for testing. The in-vitro testing is done in 100 μI complete media per well with the addition of 10 μI of erythrocytes with 2% of ring stages of parasites. All the tests are run in duplicates with in 96 well flat bottomed tissue culture plate and double dilutions are made for each of the test compound with individual control wells only with the RPMI 1640 and human serum supplement. The growth of the parasites in the presence of each of the test compound, chloroquine and control wells are monitored by the examination of the giemsa stained blood smears made after 24 hrs of incubation. The counting is done for the presence of mature schizsonts among 200 asexual parasites and the average schizont maturation inhibition is calculated by the formula (1−Nt/Nc)×100 where in Nt and Nc represent the number of schizont present in the test and control respectively. The IC 50 and IC 90 values are calculated by using the commercial statistical package Sigmastat.
As controls IC50 chloroquine and artether were also determined.

[2] = tested on: P. berghi; experiment: In-vivo anti-malarial activity; set-up: species or system Plasmodium berghi; conditions: result in words
[3] = schizont maturation inhibition, synchronized ring stage parasites in human RBCs, 24 hrs incubation

| IC50 ([1]; Plasmodium falciparum, 24 h) | IC90 ([1]; Plasmodium falciparum, 24 h) | IC50 [1, 3] | IC90 [1, 3] | SMILES | inhibitory activity against P. berghi in-vivo [2] | inhibitory activity against P. falciparum in-vitro ([1]; in-vitro, result in words) |
| --- | --- | --- | --- | --- | --- | --- |
| 12.9 µg/mL (≈ 40.2 µM) | 23.7 µg/mL (≈ 74.1 µM) | – | – | CCN(CC)CCCC(C)Nc1ccnc2cc(Cl)ccc12 (stereo not drawn) [Chloroquine, reference compound] | – | – |
| – | – | 8.23 µg/mL (≈ 24.8 µM) | 24.29 µg/mL (≈ 73.1 µM) | CC1=CC(=O)CC2C1(C)CCC(CO)C2(C)CCC1=CCOC1=O (stereo not drawn) [Gomphostenin, 3-[2-(2-Hydroxymethyl-1,4a,5-trimethyl-7-oxo-1,2,3,4,4a,7 8,8a-octahydronaphthalen-1-yl)-ethyl]-5H-furan-2-one] | significant inhibitory activity | significant inhibitory activity |

Source: patent US8188303B2, “Anti-malarial compound isolated from Gomphostema niveum” (The Director General, Defence Research and Development …, priority 2005, dated 2012)
